Measurements taken from ChEMBL document CHEMBL3407349, “The discovery of Polo-like kinase 4 inhibitors: identification of (1R,2S).2-(3-((E).4-(((cis).2,6-dimethylmorpholino)methyl)styryl). 1H.indazol-6-yl)-5'-methoxyspiro[cyclopropane-1,3'-indolin]-2'-one (CFI-400945) as a potent, orally active antitumor agent” (J Med Chem, 2015).

What was measured:
MDA-MB-468 = experiment: Growth inhibition of human MDA-MB-468 cells after 5 days by SRB assay; type: functional
MCF7 = experiment: Growth inhibition of human MCF7 cells after 5 days by SRB assay; type: functional
HCC1954 = experiment: Growth inhibition of human HCC1954 cells after 5 days by SRB assay; type: functional
MDA-MB-231 = experiment: Growth inhibition of human MDA-MB-231 cells after 5 days by SRB assay; type: functional
[1] = Growth inhibition of human HMEC cells after 5 days by SRB assay; type: cell-based; settings: HMEC cells
[2] = target: T1, Serine/threonine-protein kinase PLK4 (Homo sapiens, UniProt O00444); experiment: Inhibition of PLK4 (unknown origin) by ELISA
T1 sequence (O00444 whole entry): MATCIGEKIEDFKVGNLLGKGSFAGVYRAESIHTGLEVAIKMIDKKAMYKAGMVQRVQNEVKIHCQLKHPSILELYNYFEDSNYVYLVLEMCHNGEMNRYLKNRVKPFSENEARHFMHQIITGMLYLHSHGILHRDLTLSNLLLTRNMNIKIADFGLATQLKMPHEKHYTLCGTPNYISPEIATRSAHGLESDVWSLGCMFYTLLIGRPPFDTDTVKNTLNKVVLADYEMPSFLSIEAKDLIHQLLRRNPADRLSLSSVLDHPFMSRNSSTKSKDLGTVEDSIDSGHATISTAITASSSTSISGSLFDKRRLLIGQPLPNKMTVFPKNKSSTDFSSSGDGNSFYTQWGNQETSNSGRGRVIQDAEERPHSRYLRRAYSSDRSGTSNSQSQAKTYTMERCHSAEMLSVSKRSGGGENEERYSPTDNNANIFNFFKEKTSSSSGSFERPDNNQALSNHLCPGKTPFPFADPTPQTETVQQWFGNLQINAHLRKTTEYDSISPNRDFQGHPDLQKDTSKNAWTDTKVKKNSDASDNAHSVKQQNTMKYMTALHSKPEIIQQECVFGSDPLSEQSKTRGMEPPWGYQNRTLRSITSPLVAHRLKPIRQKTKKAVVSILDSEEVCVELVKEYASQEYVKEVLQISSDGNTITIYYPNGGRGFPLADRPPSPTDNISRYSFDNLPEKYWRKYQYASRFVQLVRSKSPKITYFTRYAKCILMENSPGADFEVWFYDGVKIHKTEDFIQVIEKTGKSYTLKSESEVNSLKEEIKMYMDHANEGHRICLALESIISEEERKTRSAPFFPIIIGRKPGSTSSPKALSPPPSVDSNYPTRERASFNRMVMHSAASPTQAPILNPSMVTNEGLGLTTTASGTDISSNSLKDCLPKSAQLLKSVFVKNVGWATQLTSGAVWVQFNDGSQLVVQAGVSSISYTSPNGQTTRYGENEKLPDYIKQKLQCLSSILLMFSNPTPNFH

Cytochrome P450 1A2 = target: T2, Cytochrome P450 1A2 (Homo sapiens, UniProt P05177); experiment: Inhibition of CYP1A2 (unknown origin) by fluorescence assay; type: ADME
T2 sequence (P05177 whole entry): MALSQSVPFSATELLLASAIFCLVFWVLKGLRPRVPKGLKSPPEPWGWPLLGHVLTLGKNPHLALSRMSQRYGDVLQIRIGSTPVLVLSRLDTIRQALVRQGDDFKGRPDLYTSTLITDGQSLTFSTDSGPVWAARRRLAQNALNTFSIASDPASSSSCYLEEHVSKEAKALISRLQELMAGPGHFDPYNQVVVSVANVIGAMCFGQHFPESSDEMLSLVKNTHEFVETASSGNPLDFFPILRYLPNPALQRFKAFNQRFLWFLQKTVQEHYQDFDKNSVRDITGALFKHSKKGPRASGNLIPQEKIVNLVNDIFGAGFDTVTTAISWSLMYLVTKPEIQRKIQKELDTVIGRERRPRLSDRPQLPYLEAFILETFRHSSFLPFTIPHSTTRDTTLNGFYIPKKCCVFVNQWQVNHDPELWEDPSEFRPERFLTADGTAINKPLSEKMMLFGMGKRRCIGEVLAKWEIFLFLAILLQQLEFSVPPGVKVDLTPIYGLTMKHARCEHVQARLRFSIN

Cytochrome P450 2D6 = Cytochrome P450 2D6 (Homo sapiens, UniProt P10635); experiment: Inhibition of CYP2D6 (unknown origin) by fluorescence assay; type: ADME
Cytochrome P450 2C9 = Cytochrome P450 2C9 (Homo sapiens, UniProt P11712); experiment: Inhibition of CYP2C9 (unknown origin) by fluorescence assay
Cytochrome P450 2C19 = Cytochrome P450 2C19 (Homo sapiens, UniProt P33261); experiment: Inhibition of CYP2C19 (unknown origin) by fluorescence assay
Cytochrome P450 3A4 [3] = target: T3, Cytochrome P450 3A4 (Homo sapiens, UniProt P08684); experiment: Inhibition of CYP3A4 (unknown origin) using DBF as substrate by fluorescence assay
Cytochrome P450 3A4 [4] = target: T3, Cytochrome P450 3A4; experiment: Inhibition of CYP3A4 (unknown origin) using BFC as substrate by fluorescence assay
[5] = Half life in mouse liver microsomes
[6] = Half life in rat liver microsomes; settings: liver microsomes
[7] = Half life in dog liver microsomes; settings: liver microsomes
[8] = Half life in human liver microsomes
[9] = Cmax in athymic CD1 nude mouse at 25 mg/kg, po by LC/MS/MS analysis; type: ADME, organism-based; parameters: dose 25 mg/kg, route oral; settings: in vivo
[10] = AUC in athymic CD1 nude mouse at 25 mg/kg, po by LC/MS/MS analysis; type: ADME, organism-based; parameters: dose 25 mg/kg, route oral; settings: plasma
[11] = Homo sapiens, MDA-MB-468, 120 h
[12] = Homo sapiens, MDA-MB-231, 120 h

T3 sequence (P08684 whole entry): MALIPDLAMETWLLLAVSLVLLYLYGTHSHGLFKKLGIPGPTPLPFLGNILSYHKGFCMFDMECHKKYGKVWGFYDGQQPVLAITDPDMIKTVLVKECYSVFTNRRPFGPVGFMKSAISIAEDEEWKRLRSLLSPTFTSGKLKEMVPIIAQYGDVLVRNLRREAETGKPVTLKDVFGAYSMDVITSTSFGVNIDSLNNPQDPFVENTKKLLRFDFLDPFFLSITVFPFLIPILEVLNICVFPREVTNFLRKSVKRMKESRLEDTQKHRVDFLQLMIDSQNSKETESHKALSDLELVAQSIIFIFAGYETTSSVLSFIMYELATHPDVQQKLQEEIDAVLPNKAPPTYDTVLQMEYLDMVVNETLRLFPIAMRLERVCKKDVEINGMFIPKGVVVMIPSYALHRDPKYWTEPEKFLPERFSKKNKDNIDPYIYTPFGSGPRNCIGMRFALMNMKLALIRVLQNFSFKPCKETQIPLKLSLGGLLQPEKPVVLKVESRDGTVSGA
Sequence of Cytochrome P450 2D6 (P10635 whole entry): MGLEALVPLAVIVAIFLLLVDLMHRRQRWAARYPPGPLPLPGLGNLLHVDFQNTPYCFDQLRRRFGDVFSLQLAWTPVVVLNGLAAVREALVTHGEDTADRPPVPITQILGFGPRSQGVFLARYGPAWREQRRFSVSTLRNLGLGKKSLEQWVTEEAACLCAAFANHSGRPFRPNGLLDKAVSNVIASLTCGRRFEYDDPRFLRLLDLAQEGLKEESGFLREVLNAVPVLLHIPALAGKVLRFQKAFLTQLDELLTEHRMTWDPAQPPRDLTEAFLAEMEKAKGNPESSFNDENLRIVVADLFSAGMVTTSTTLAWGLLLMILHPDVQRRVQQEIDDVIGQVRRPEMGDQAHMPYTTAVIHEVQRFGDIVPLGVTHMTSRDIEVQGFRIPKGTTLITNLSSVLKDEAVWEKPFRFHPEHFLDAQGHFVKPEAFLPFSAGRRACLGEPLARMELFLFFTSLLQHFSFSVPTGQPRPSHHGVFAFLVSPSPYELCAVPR
Sequence of Cytochrome P450 2C9 (P11712 whole entry): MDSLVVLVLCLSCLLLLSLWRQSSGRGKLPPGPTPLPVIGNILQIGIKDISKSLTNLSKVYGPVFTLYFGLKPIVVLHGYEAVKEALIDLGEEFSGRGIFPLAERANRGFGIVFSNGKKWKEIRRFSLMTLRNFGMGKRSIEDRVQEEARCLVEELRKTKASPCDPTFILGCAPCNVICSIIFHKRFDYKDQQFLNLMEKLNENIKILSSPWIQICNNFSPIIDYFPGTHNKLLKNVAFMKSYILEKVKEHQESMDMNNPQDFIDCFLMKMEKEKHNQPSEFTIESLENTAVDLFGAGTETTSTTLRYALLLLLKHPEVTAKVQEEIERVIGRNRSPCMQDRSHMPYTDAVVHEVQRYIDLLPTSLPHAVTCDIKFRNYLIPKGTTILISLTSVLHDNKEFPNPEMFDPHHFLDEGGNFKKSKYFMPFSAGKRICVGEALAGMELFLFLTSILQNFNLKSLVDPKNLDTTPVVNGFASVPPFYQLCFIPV
Sequence of Cytochrome P450 2C19 (P33261 whole entry): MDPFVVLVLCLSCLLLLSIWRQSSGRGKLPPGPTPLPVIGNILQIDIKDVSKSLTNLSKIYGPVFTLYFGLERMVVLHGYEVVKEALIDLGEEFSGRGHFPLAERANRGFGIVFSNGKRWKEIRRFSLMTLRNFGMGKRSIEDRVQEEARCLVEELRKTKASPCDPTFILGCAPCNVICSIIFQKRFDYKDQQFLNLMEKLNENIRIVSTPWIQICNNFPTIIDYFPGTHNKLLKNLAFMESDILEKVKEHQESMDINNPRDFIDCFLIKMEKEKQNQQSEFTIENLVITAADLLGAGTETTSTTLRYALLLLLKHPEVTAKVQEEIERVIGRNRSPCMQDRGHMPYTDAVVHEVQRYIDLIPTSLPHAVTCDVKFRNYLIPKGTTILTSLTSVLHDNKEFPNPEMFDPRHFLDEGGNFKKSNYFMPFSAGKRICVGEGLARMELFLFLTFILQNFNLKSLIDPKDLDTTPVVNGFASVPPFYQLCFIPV

Row | Structure (SMILES) | GI50 (MDA-MB-468; [11]) | GI50 (MCF7; Homo sapiens, MCF7, 120 h) | GI50 (HCC1954; Homo sapiens, HCC1954, 120 h) | GI50 (MDA-MB-231; [12]) | GI50 at 120 h [1] | IC50 [2] | inhibition (INH) (Cytochrome P450 1A2) | inhibition (INH) (Cytochrome P450 2D6) | IC50 (Cytochrome P450 2C9) | IC50 (Cytochrome P450 2C19) | IC50 (Cytochrome P450 3A4 [3]) | half-life ([5]; liver microsomes) | half-life ([8]; liver microsomes) | Cmax [9] | AUC [10] | other results
1 | O=C1Nc2ccccc2[C@]12C[C@H]2c1ccc2c(/C=C/c3ccc(CN4CCCC4)cc3)n[nH]c2c1 | < 1 nM | 370 nM | 26 nM | 250 nM | 3600 nM | – | – | – | – | – | – | – | – | – | – | –
2 | O=C1Nc2ccccc2[C@]12C[C@H]2c1ccc2c(/C=C/c3cccc(CN4CCOCC4)c3)n[nH]c2c1 | 130 nM | 350 nM | 1600 nM | 2200 nM | 50000 nM | – | – | – | – | – | – | – | – | – | – | –
3 | COc1ccc2c(c1)[C@]1(C[C@H]1c1ccc3c(/C=C/c4ccc(CN5[C@H](C)CN(C)C[C@@H]5C)cc4)n[nH]c3c1)C(=O)N2 | 10 nM | 2500 nM | 2300 nM | 2200 nM | – | 0.39 nM | Not Active | Not Active | 560 nM | 810 nM | 1600 nM | 38 min | > 60 min | 1300 ng/mL | 2200 ng·h/mL | IC50 (Cytochrome P450 3A4 [4]): 10000 nM; half-life [6]: 49 min; half-life [7]: 39 min
4 | O=C1Nc2ccccc2[C@]12C[C@H]2c1ccc2c(/C=C/c3ccc(CN4CCCOCC4)cc3)n[nH]c2c1 | 2 nM | 1000 nM | 1800 nM | 3000 nM | – | – | – | – | – | – | – | – | – | – | – | –
5 | COc1ccc2c(c1)[C@]1(C[C@H]1c1ccc3c(/C=C/c4ccc(CN5CCCCC5)cc4)n[nH]c3c1)C(=O)N2 | < 1 nM | < 1 nM | 5000 nM | 1600 nM | 50000 nM | – | Not Active | Not Active | 3400 nM | 1400 nM | 5400 nM | 40 min | 49 min | 510 ng/mL | 1300 ng·h/mL | IC50 (Cytochrome P450 3A4 [4]): > 1000 nM
6 | O=C1Nc2ccccc2[C@]12C[C@H]2c1ccc2c(/C=C/c3ccc(CN4CC5CCC(C4)O5)cc3)n[nH]c2c1 | 61 nM | 170 nM | 53 nM | 4100 nM | – | 5.2 nM | – | – | – | – | – | – | – | – | – | –
7 | O=C1Nc2ccccc2[C@]12C[C@H]2c1ccc2c(/C=C/c3ccc(CN4CC[C@@H](F)C4)cc3)n[nH]c2c1 | 6.7 nM | 34000 nM | 22 nM | 5600 nM | 7900 nM | – | Not Active | Not Active | 900 nM | 1500 nM | – | 17 min | 52 min | 790 ng/mL | 1800 ng·h/mL | –
8 | CN1CCN(c2ccc(/C=C/c3n[nH]c4cc([C@@H]5C[C@@]56C(=O)N(C)c5ccccc56)ccc34)cn2)CC1 | 1 nM | 20 nM | 5 nM | 600 nM | – | 1.3 nM | Not Active | Not Active | 3800 nM | 1200 nM | 2900 nM | 7 min | 27 min | 700 ng/mL | 1600 ng·h/mL | IC50 (Cytochrome P450 3A4 [4]): 300 nM
9 | CN1CCC(Oc2ccc(/C=C/c3n[nH]c4cc([C@@H]5C[C@@]56C(=O)Nc5ccccc56)ccc34)cc2)CC1 | 2 nM | 2400 nM | 770 nM | 920 nM | – | – | – | – | – | – | – | – | – | – | – | –
10 | O=C1Nc2ccccc2[C@]12C[C@H]2c1ccc2c(/C=C/c3ccc(CN4CCCCC4)cc3)n[nH]c2c1 | < 1 nM | < 1 nM | 5000 nM | 2200 nM | 20000 nM | – | – | – | – | – | – | – | – | – | – | –
11 | COc1ccc2c(c1)[C@]1(C[C@H]1c1ccc3c(/C=C/c4ccc(N5CCN(C)CC5)nc4)n[nH]c3c1)C(=O)N2 | < 1 nM | < 1 nM | 2 nM | 2600 nM | 47000 nM | – | Not Active | Not Active | 2000 nM | 1500 nM | 5600 nM | 6 min | 11 min | 200 ng/mL | 380 ng·h/mL | IC50 (Cytochrome P450 3A4 [4]): 10000 nM
12 | C[C@@H]1CN(Cc2ccc(/C=C/c3n[nH]c4cc([C@@H]5C[C@@]56C(=O)Nc5ccccc56)ccc34)cc2)C[C@H](C)N1C | 10 nM | 2500 nM | 1300 nM | 500 nM | – | 0.64 nM | – | – | – | – | – | – | – | – | – | –
13 | CN(C)Cc1ccc(/C=C/c2n[nH]c3cc([C@@H]4C[C@@]45C(=O)Nc4ccccc45)ccc23)cc1 (racemic) | – | – | 1900 nM | – | 28000 nM | – | – | – | – | – | – | – | – | – | – | GI50 (MDA-MB-231): 12000 nM
14 | COc1ccc2c(c1)[C@]1(C[C@H]1c1ccc3c(/C=C/c4ccc(CN5CCOCC5)cc4)n[nH]c3c1)C(=O)N2 (racemic) | – | – | – | – | – | – | – | – | – | – | – | – | – | – | – | GI50 (MDA-MB-468): 6 nM; GI50 (MCF7): 10 nM; GI50 (HCC1954): 7300 nM; GI50 (MDA-MB-231): 14000 nM
15 | O=C1Nc2ccccc2[C@]12C[C@H]2c1ccc2c(/C=C/c3cccnc3)n[nH]c2c1 | 60 nM | 2000 nM | 7500 nM | 1000 nM | 4400 nM | – | – | – | – | – | – | – | – | – | – | –
16 | COc1ccc2c(c1)[C@]1(C[C@H]1c1ccc3c(/C=C/c4ccc(CN(C)C)cc4)n[nH]c3c1)C(=O)N2 | < 1 nM | 0.1 nM | 5000 nM | 2800 nM | 41000 nM | – | Not Active | Not Active | 3500 nM | 2000 nM | 7500 nM | 22 min | 36 min | 300 ng/mL | 640 ng·h/mL | –
17 | O=C1Nc2ccccc2[C@]12C[C@H]2c1ccc2c(/C=C/c3ccc(N4CCNCC4)cc3)n[nH]c2c1 | 2 nM | 20 nM | 260 nM | 23 nM | 21000 nM | 0.9 nM | Not Active | Not Active | 1700 nM | 900 nM | 2800 nM | – | – | 120 ng/mL | 340 ng·h/mL | half-life ([5]; microsomes): 19 min; half-life ([8]; microsomes): 46 min
18 | CN(C)Cc1ccc(/C=C/c2n[nH]c3cc([C@@H]4C[C@@]45C(=O)N(C)c4ccccc45)ccc23)cc1 | 2 nM | 1.5 nM | 7 nM | 750 nM | 8000 nM | – | Not Active | Not Active | 2600 nM | 1900 nM | > 1000 nM | – | – | 510 ng/mL | 1100 ng·h/mL | IC50 (Cytochrome P450 3A4 [4]): 2300 nM; half-life ([5]; microsomes): 12 min; half-life ([8]; microsomes): 44 min
19 | C[C@@H]1CN(Cc2cccc(/C=C/c3n[nH]c4cc([C@@H]5C[C@@]56C(=O)Nc5ccccc56)ccc34)c2)C[C@H](C)O1 | 1100 nM | 1300 nM | 84 nM | 9600 nM | – | 20 nM | – | – | – | – | – | – | – | – | – | –
